The test system of series [1] is AMPA receptor. Kind of series: Rat hippocampal slice assay: field EPSP amplitude in CA1. The class given is cell-based. The protocol: In another test, excitatory responses (field EPSPs) were measured in hippocampal slices, which were maintained in a recording chamber continuously perfused with artificial cerebrospinal fluid (ACSF). During a 15-30 minute interval, the perfusion medium was switched to one containing various concentrations of the test compounds. Responses collected immediately before and at the end of drug perfusion were superimposed in order to calculate the percent increase in EPSP amplitude.
To obtain data for the activity of invention compounds on synaptic responses, a bipolar nichrome stimulating electrode was positioned in the dendritic layer (stratum radiatum) of the hippocampal subfield CA1 close to the border of subfield CA3. Current pulses (0.1 msec) through the stimulating electrode activate a population of the Schaffer-commissural (SC) fibers, which arise from neurons in the subdivision CA3 and terminate in synapses on the dendrites of CA1 neurons. Activation of these synapses causes them to release the transmitter glutamate. Glutamate binds to post-synaptic AMPA receptors, which then transiently open an associated ion channel and permit a sodium current to enter the postsynaptic cell. This current results in a voltage in the extracellular space (the field EPSP), which is recorded by a high impedance recording electrode positioned in the middle of the stratum radiatum of CA1.
The intensity of the stimulation current was adjusted to produce half-maximal EPSPs (typically about 1.5-2.0 mV). Paired stimulation pulses were given every 40 sec with an interpulse interval of 200 msec, as described further in Example 30.
Hippocampal slices were maintained in a recording chamber continuously perfused with artificial cerebrospinal fluid (ACSF). During 15-30 minute intervals, the perfusion medium was switched to one containing various concentrations of the test compounds. Responses collected immediately before and at the end of drug perfusion were superimposed in order to calculate the percent increase in EPSP amplitude.
To conduct these tests, the hippocampus was removed from anesthetized, 2 month old Sprague-Dawley rats and in vitro slices (400 μm thick) were prepared and maintained in an interface chamber at 35° C. using conventional techniques [see, for example, Dunwiddie and Lynch, J. Physiol. 276: 353-367 (1978)]. The chamber was constantly perfused at 0.5 mL/min with ACSF containing (in mM): NaCl 124, KCl 3, KH2PO4 1.25, MgSO4 2.5, CaCl2 3.4, NaHCO3 26, glucose 10 and L-ascorbate 2. A bipolar nichrome stimulating electrode was positioned in the dendritic layer (stratum radiatum) of the hippocampal subfield CA1 close to the border of subfield CA3.
Current pulses (0.1 msec) through the stimulating electrode activate a population of the Schaffer-commissural (SC) fibers, which arise from neurons in the subdivision CA3 and terminate in synapses on the dendrites of CA1 neurons. Activation of these synapses causes them to release the transmitter glutamate. Glutamate binds to the post-synaptic AMPA receptors, which then transiently open an associated ion channel and permit a sodium current to enter the postsynaptic cell. This current results in a voltage in the extracellular space (the field EPSP) which is recorded by a high impedance recording electrode positioned in the middle of the stratum radiatum of CA1. The intensity of the stimulation current was adjusted to produce half-maximal EPSPs (typically about 1.5-2.0 mV). Paired stimulation pulses were given every 40 s with an interpulse interval of 200 msec (see below). The field EPSPs of the second response were digitized and analyzed to determine amplitude. If the responses were stable for 15-30 min (baseline), test compounds were added to the perfusion lines for a period of about 15 min. The perfusion was then changed back to regular ACSF. […]

Series [2] concerns AMPA receptor. Nature of the series: In vivo electrophysiology: field EPSP in dentate gyrus of anesthetized animals. On the set-up: species or system rat. The method, then:
Animals are maintained under anesthesia by phenobarbital administered using a Hamilton syringe pump. Stimulating and recording electrodes are inserted into the perforant path and dentate gyrus of the hippocampus, respectively. Once electrodes are implanted, a stable baseline of evoked responses are elicited using single monophasic pulses (100 μs pulse duration) delivered at 3/min to the stimulating electrode. Field EPSPs are monitored until a stable baseline is achieved (about 20-30 min), after which a solution of test compound in HPCD is injected intraperitoneally and evoked field potentials are recorded. Evoked potentials are recorded for approximately 2 h following drug administration or until the amplitude of the field EPSP returns to baseline. In the latter instance, it is common that an iv administration is also carried out with an appropriate dose of the same test compound.

Series [3] relates to AMPA receptor. Nature of the series: In vitro patch clamp electrophysiology assay: glutamate-induced whole-cell current in cultured cortical neurons. The class given is cell-based. The following applies: rat cortical neurons, 500 μM glutamate. The method, then:
Cortical cells were prepared from day 18-19 embryonic Sprague-Dawley rats and recorded after 3 days in culture. The extracellular solution (ECS) contained (in mM): NaCl (145), KCl (5.4), HEPES (10), MgCl2 (0.8), CaCl2 (1.8), glucose (10), sucrose (30); pH. 7.4. In order to block the voltage-gated sodium currents, 40 nM TTX was added to the recording solution. The intracellular solution contained (in mM): K-gluconate (140), HEPES (20), EGTA (1.1), phosphocreatine (5), MgATP (3), GTP (0.3), MgCl2 (5), and CaCl2 (0.1); pH: 7.2. All test compound and glutamate solutions were made-up in the extracellular solution.
The whole-cell current was measured with patch-clamp amplifier (Axopatch 200B), filtered at 2 kHz, digitized at 5 kHz and recorded on a PC with pClamp 8. The cells were voltage-clamped at −80 mV. Solutions were applied by DAD-12 system. A baseline response for each cell was recorded using a 1 s pulse of 500 μM glutamate dissolved in ECS. Responses to test compound were then determined by application of a 10 s pulse of test compound followed by a 1 s pulse of the same concentration of test compound plus 500 μM glutamate and then 10 s of saline. This pulse sequence was repeated until a stable reading was obtained, or until sufficient data points were measured to allow extrapolation to a calculated maximum change.
The mean value of plateau current between 600 ms to 900 ms after application of glutamate or test compound plus glutamate was calculated and used as the parameter to measure the drug effect. The plateau responses in the presence of varying concentrations of test compound were divided by the baseline response in order to calculate the percentage increase. Compounds are deemed active in this test if, at a test concentration of 3 μM or less, they produce a greater than 100% increase in the value of the steady-state current measured due to application of glutamate alone. The concentration at which the glutamate induced current is increased by 100% is commonly referred to as the EC2x value.
A general note: The patch-clamp technique gives a direct electrical read-out from membranes.

A word on the melting point: it is the temperature, or range, at which the solid turns liquid. With `CCC(Cn1ccnn1)n1cnc2cc3c(=O)n(C4CC4)nnc3cc2c1=O` (stereo not shown), the melting point was in the range of 215 to 217 °C.
As for `CC[C@H](Cn1nnnc1C)n1cnc2cc3c(=O)n([C@H](C)Cn4ncnn4)nnc3cc2c1=O`, the melting point is 238 to 240 °C.
`CCC(Cn1cnnn1)n1cnc2cc3c(=O)n(C4CC4)nnc3cc2c1=O` (stereo not shown) came in with a melting point of 213 to 214 °C.
Molecule `C#CCn1nnc2cc3c(=O)n(C(C)Cn4cnnn4)cnc3cc2c1=O` (stereo not shown) registered a melting point of 218 to 219 °C.
Regarding `C[C@H](Cn1cnnn1)n1nnc2cc3c(=O)n([C@H](C)Cn4ncnn4)nnc3cc2c1=O`, the melting point is 160 to 161 °C.
Turning to `C[C@H](Cn1ncnn1)n1nnc2cc3c(=O)n(C4CC4)nnc3cc2c1=O` [Example 1, 3-Cyclopropyl-8-[(1R)-1-methyl-2-(2H-tetrazol-2-yl)ethyl]-3,8-dihydro[1,2,3]triazino[4,5-g][1,2,3]-benzotriazine-4,9-dione], the “% increase in the amplitude of the field EPSP in the CA1 region of rat hippocampal slice” value (shortened to “% increase … of rat hippocampal slice”) in the series with AMPA receptor [1] (@ 3 μM) is given as 69% @ 3 μM. The “% increase in the amplitude of the field EPSP in rat dentate gyrus” value (“% increase … in rat dentate gyrus” for short) with AMPA receptor [2] (@ 5 mpk i.p.) is 37%^3. Besides, the “In vitro Patch Clamp Electrophysiology EC2x (concentration at which the glutamate induced current is increased by 100%)” value with AMPA receptor [3] is listed as 0.28 μM.
In turn, `CC(Cn1cccn1)n1nnc2cc3c(=O)n(C4CC4)nnc3cc2c1=O` (stereo not shown) had a melting point of 178 to 180 °C.
Consider `C[C@H](Cn1ncnn1)n1cnc2cc3c(=O)n(C4CC4)nnc3cc2c1=O` [Example 53, 3-Cyclopropyl-8-[(2R)-1-(2H-tetrazol-2-yl)propan-2-yl]-3,8-dihydro[1,2,3]triazino[4,5-g]quinazoline-4,9-dione], for which, in the series with AMPA receptor [1] (@ 10 μM), the “% increase … of rat hippocampal slice” value came to 55% @ 10 μM. Moreover, in the series on AMPA receptor [2] (@ 5 mpk i.p.), the “% increase … in rat dentate gyrus” value is 33%^3. Also, in the series with AMPA receptor [3], the “In vitro Patch Clamp Electrophysiology EC2x (concentration at which the glutamate induced current is increased by 100%)” value turned out to be 0.60 μM.
Consider `CCC(Cn1ncnn1)n1cnc2cc3c(=O)n(C4CC4)nnc3cc2c1=O` (stereo not shown), for which the melting point was in the range of 160 to 161 °C.
Consider `C[C@H](Cn1ncnn1)n1nnc2cc3c(=O)n(C)nnc3cc2c1=O` [Example 4, 3-Methyl-8-[(2R)-1-(2H-tetrazol-2-yl)propan-2-yl]-3,8-dihydrobenzo[1,2-d:4,5-d′]bis[1,2,3]triazine-4,9-dione], for which the “% increase … of rat hippocampal slice” value with AMPA receptor [1] (@ 3 μM) is recorded as 18% @ 3 μM. The “% increase … in rat dentate gyrus” value in the series with AMPA receptor [2] (@ 5 mpk i.p.) is reported as 46%^3. Besides, the “In vitro Patch Clamp Electrophysiology EC2x (concentration at which the glutamate induced current is increased by 100%)” value with AMPA receptor [3] worked out at 0.28 μM.
Molecule `CCC(Cn1nccn1)n1cnc2cc3c(=O)n(C4CC4)nnc3cc2c1=O` (stereo not shown) gave a melting point of 129 to 130 °C.
In turn, `CC[C@H](Cn1cnnn1)n1cnc2cc3c(=O)n([C@H](C)Cn4ncnn4)nnc3cc2c1=O` gave a melting point of 198 to 200 °C.
The molecule `CC[C@H](Cn1cnnn1)n1cnc2cc3c(=O)n([C@H](CC)Cn4cnnn4)nnc3cc2c1=O` registered a melting point of 80 to 81 °C.
Consider `C[C@H](Cn1ncnn1)n1nnc2cc3c(=O)n([C@H](C)Cn4ncnn4)nnc3cc2c1=O` [Example 80, 3,8-Bis[(2R)-1-(2H-tetrazol-2-yl)propan-2-yl]-3,8-dihydrobenzo[1,2-d:4,5-d′]bis[1,2,3]triazine-4,9-dione], for which the “% increase … of rat hippocampal slice” value with AMPA receptor [1] (@ 3 μM) is given as 65% @ 3 μM. Also, in the series with AMPA receptor [2] (@ 1 mpk i.p.), the “% increase … in rat dentate gyrus” value is 59%^4. For the same molecule, the “In vitro Patch Clamp Electrophysiology EC2x (concentration at which the glutamate induced current is increased by 100%)” value with AMPA receptor [3] was found to be 0.016 μM.
For the molecule `CC(Cn1cnnn1)n1cnc2cc3c(=O)n(C4CC4)nnc3cc2c1=O` (stereo not shown), the melting point fell in the range of 245 to 246 °C.
As for `C[C@H](Cn1ncnn1)n1nnc2cc3c(=O)n(CC#N)nnc3cc2c1=O` [Example 22, {4,9-Dioxo-8-[(2R)-1-(2H-tetrazol-2-yl)propan-2-yl]-8,9-dihydrobenzo[1,2-d:4,5-d′]bis[1,2,3]triazin-3(4H)-yl}acetonitrile], in the series on AMPA receptor [1] (@ 3 μM), the “% increase … of rat hippocampal slice” value stood at 24% @ 3 μM. Also, in the series with AMPA receptor [2] (@ 5 mpk i.p.), the “% increase … in rat dentate gyrus” value amounted to 42%^3. Moreover, in the series on AMPA receptor [3], the “In vitro Patch Clamp Electrophysiology EC2x (concentration at which the glutamate induced current is increased by 100%)” value is reported as 0.24 μM.
Consider `CC[C@H](Cn1nnc(C)n1)n1cnc2cc3c(=O)n([C@H](C)Cn4ncnn4)nnc3cc2c1=O`, for which the melting point is 140 to 141 °C.
With `COCCn1nnc2cc3c(=O)n([C@H](C)Cn4ncnn4)nnc3cc2c1=O` [Example 18, 3-(2-Methoxyethyl)-8-[(2R)-1-(2H-tetrazol-2-yl)propan-2-yl]-3,8-dihydrobenzo[1,2-d: 4,5-d′]bis[1,2,3]triazine-4,9-dione], in the series with AMPA receptor [1] (@ 10 μM), the “% increase … of rat hippocampal slice” value stood at 35% @ 10 μM. Besides, in the series on AMPA receptor [2] (@ 5 mpk i.p.), the “% increase … in rat dentate gyrus” value is reported as 34%^3.
As to `C[C@H](Cn1cncn1)n1nnc2cc3c(=O)n(C4CC4)nnc3cc2c1=O`, the melting point lay within 195 to 199 °C.
Consider `CC(Cn1cnnn1)n1nnc2cc3c(=O)n(C(C)Cn4ncnn4)nnc3cc2c1=O` (stereo not shown), for which the melting point lay within 204 to 206 °C.
Molecule `C[C@H](Cn1cccn1)n1cnc2cc3c(=O)n([C@H](C)Cn4cc(Cl)cn4)cnc3cc2c1=O` displayed a melting point of 231 to 232 °C.
`C#CCn1nnc2cc3c(=O)n(C(C)Cn4ncnn4)cnc3cc2c1=O` (stereo not shown) came in with a melting point of 222 to 223 °C.
Same read-out and setting: then `CC(Cn1ncnn1)n1nnc2cc3c(=O)n(C(C)Cn4ncnn4)nnc3cc2c1=O` (stereo not shown), with 223 to 226 °C.
